Test results from ChEMBL document CHEMBL1201862, “PubChem BioAssay data set” (2004).
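Cells were grown in 96-well plates and exposed to each compound for 48 hours at five concentrations; endpoints were interpolated linearly between bracketing concentrations, or set to the highest concentration if not reached. GI50 is the concentration that inhibits growth by half.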 The source made the active and inactive calls. Cut-off read from the data, not from the text of the source: active = GI50 up to about 1.1 µM and inactive = higher.

Legend:
Experiment in all cases: DTP human tumour cell line panel, 48 h
DMS-114 = system: DMS-114
DMS-273 = system: DMS-273
HOP-18 = system: HOP-18
KM-20L2 = system: KM-20L2
M19-MEL = system: M19-MEL
RXF 631 = system: RXF 631
SNB-78 = system: SNB-78
XF498 = system: XF498
DLD-1 = system: DLD-1

Measured: GI50

CC(=O)Nc1ccccc1Sc1ccccc1
inactive: DMS-114 > 100 µM | DMS-273 > 100 µM | HOP-18 > 100 µM | KM-20L2 > 100 µM | M19-MEL > 100 µM | RXF 631 > 100 µM | SNB-78 > 100 µM | XF498 > 100 µM

Cn1nc(-c2ccccc2)c(C(=O)/C=C/c2ccc(Cl)cc2)c(N2CCCC2)c1=O
inactive: DLD-1 2.69 µM | DMS-114 2.84 µM | DMS-273 3.62 µM | HOP-18 6.49 µM | KM-20L2 3.78 µM | M19-MEL 7.24 µM | RXF 631 6.12 µM | XF498 10.4 µM

CCCCCCCCCCCC(=O)OC[C@@H](C[As](=O)(O)O)OC(=O)CCCCCCCCCCC
inactive: DLD-1 18 µM | DMS-114 2.12 µM | DMS-273 3.26 µM | HOP-18 14.5 µM | KM-20L2 13.4 µM | M19-MEL 6.05 µM | SNB-78 3.39 µM | XF498 14.2 µM

[N-]=[N+]=Nc1ncnc2c1sc(=S)n2-c1ccccc1
inactive: DLD-1 > 100 µM | DMS-114 > 100 µM | DMS-273 > 100 µM | HOP-18 > 100 µM | KM-20L2 > 100 µM | M19-MEL > 100 µM | SNB-78 > 100 µM | XF498 > 100 µM

COC1(C)CNCC(C)(C)NC(=O)C(C)(OC)CNCC(C)(C)NC1=O (stereo not given)
inactive: DLD-1 > 100 µM | DMS-114 > 100 µM | DMS-273 > 100 µM | HOP-18 > 100 µM | KM-20L2 > 100 µM | M19-MEL > 100 µM | RXF 631 > 100 µM | SNB-78 > 100 µM

C=CN1C(=O)[C@H](Oc2ccccc2)[C@@H]1c1ccccc1
inactive: DLD-1 28.5 µM | DMS-114 27.6 µM | HOP-18 37.8 µM | KM-20L2 31.7 µM | M19-MEL 43.4 µM | SNB-78 43.5 µM | XF498 26.1 µM

COC(=O)C(CBr)CBr
inactive: DLD-1 2.04 µM | DMS-114 2.06 µM | DMS-273 12.7 µM | KM-20L2 6.76 µM | M19-MEL 3.21 µM | RXF 631 3.05 µM | SNB-78 1.79 µM | XF498 2.3 µM

Cc1ccc(NC(=O)CCc2n[nH]c(=S)o2)cc1
inactive: DLD-1 > 100 µM | DMS-114 > 100 µM | DMS-273 > 100 µM | HOP-18 > 100 µM | KM-20L2 > 72.1 µM | M19-MEL > 100 µM | RXF 631 > 100 µM | SNB-78 > 100 µM | XF498 > 100 µM

CCN(CC)c1ccc(/N=N/c2ccc(-c3nc4cccnc4s3)cc2)cc1
inactive: DLD-1 > 100 µM | DMS-114 46.5 µM | KM-20L2 > 100 µM | M19-MEL 7.69 µM | SNB-78 > 100 µM | XF498 18.2 µM

CN(C)CC/C(=N\Nc1ccc(Cl)cc1Cl)c1ccccc1
inactive: DLD-1 10.3 µM | DMS-114 13.8 µM | DMS-273 13.8 µM | HOP-18 8.85 µM | KM-20L2 14.3 µM | M19-MEL 17.2 µM | SNB-78 13.5 µM

N#CCCCCCOCCOCCOCCOCCOCCCCCC#N
inactive: DLD-1 > 100 µM | DMS-114 > 100 µM | DMS-273 > 100 µM | HOP-18 > 100 µM | KM-20L2 > 100 µM | M19-MEL > 100 µM | RXF 631 > 100 µM

Cn1c(=O)c(C(=O)NC(=O)NCCCCCOC(=O)CCCCCCCCCCC(=O)OCCCCCNC(=O)NC(=O)c2cn(Cc3ccccc3)c(=O)n(C)c2=O)cn(Cc2ccccc2)c1=O
inactive: DLD-1 > 100 µM | DMS-114 > 100 µM | DMS-273 > 100 µM | HOP-18 > 100 µM | KM-20L2 > 100 µM | M19-MEL > 100 µM | SNB-78 > 100 µM | XF498 > 100 µM

CC(C)(C)OC(=O)c1cccnc1/C=N/O
inactive: DLD-1 > 100 µM | DMS-114 > 100 µM | DMS-273 > 100 µM | HOP-18 > 100 µM | KM-20L2 51.4 µM | M19-MEL > 100 µM | RXF 631 > 100 µM | SNB-78 > 100 µM | XF498 > 100 µM

COC(CC1(OC)OC(=O)C=C1N)OC (stereo not given)
inactive: DLD-1 > 100 µM | DMS-114 > 100 µM | DMS-273 > 100 µM | HOP-18 > 100 µM | M19-MEL > 100 µM | SNB-78 > 100 µM

O=C1c2ccccc2C(=O)N1C/C=N/NS(=O)(=O)c1cccc([N+](=O)[O-])c1
inactive: DLD-1 > 100 µM | DMS-114 > 100 µM | DMS-273 > 100 µM | KM-20L2 > 100 µM | M19-MEL > 100 µM | XF498 > 100 µM

CCC(=O)c1c(NOC2OC(COC(C)=O)C(OC(C)=O)C(OC(C)=O)C2OC(C)=O)nc(OC)n(C)c1=O (stereo not given)
inactive: DLD-1 > 100 µM | DMS-114 > 100 µM | DMS-273 > 100 µM | KM-20L2 > 100 µM | M19-MEL > 100 µM | RXF 631 > 100 µM | SNB-78 > 100 µM | XF498 > 100 µM

CCOC(=O)NC(=O)c1cn(CCCOC(=O)NCCCCCCNC(=O)OCCCn2cc(C(=O)NC(=O)OCC)c(=O)[nH]c2=O)c(=O)[nH]c1=O
inactive: DLD-1 31.3 µM | DMS-114 15.3 µM | DMS-273 30.7 µM | HOP-18 82.8 µM | KM-20L2 50 µM | M19-MEL 31.9 µM | SNB-78 36.7 µM

CC(=O)CC(=O)CCC(=O)Nc1cccc(C(F)(F)F)c1
inactive: DLD-1 > 100 µM | DMS-114 > 100 µM | DMS-273 > 100 µM | HOP-18 > 100 µM | KM-20L2 > 100 µM | SNB-78 > 100 µM | XF498 > 100 µM

COC(=O)c1cccc2cccc(C(=O)Nc3ccc(C)cc3C)c12
inactive: DLD-1 > 100 µM | DMS-114 > 100 µM | DMS-273 > 100 µM | HOP-18 65.5 µM | KM-20L2 > 100 µM | M19-MEL > 100 µM | RXF 631 > 100 µM | SNB-78 > 100 µM | XF498 54.6 µM

O=c1cc(-c2cccnc2)[nH]c2cc3c(cc12)OCO3
inactive: DLD-1 4.03 µM | DMS-114 7.01 µM | DMS-273 4.13 µM | HOP-18 1.17 µM | M19-MEL 3.59 µM | SNB-78 27.7 µM | XF498 7.36 µM

CC(=O)c1ccc(NC(=O)C(=O)C(C(=O)/C=C/c2ccccc2)C2OC(=O)c3ccccc32)cc1 (stereo not given)
inactive: DLD-1 > 100 µM | DMS-273 > 100 µM | HOP-18 > 100 µM | KM-20L2 > 100 µM | M19-MEL > 100 µM | RXF 631 > 100 µM | SNB-78 > 100 µM | XF498 > 100 µM

Cn1cc(NC(=O)c2cc(NC(=O)CCCCCC(=O)Nc3cc(C(=O)Nc4cc(C(=O)NCCC(=N)N)n(C)c4)n(C)c3)cn2C)cc1C(=O)NCCC(=N)N
inactive: DLD-1 > 100 µM | DMS-114 33 µM | DMS-273 67.3 µM | HOP-18 > 100 µM | KM-20L2 > 100 µM | M19-MEL 15.2 µM | RXF 631 > 100 µM | SNB-78 > 100 µM | XF498 > 100 µM

N#C/C(=C/c1cccc2ccccc12)C(=O)c1ccccc1
inactive: DMS-114 51.6 µM | KM-20L2 19 µM | M19-MEL 28.4 µM | SNB-78 42.9 µM | XF498 20.1 µM

O=c1cccccc1O.O=c1cccccc1O.O=c1cccccc1O.[SiH4]
inactive: DLD-1 6.43 µM | DMS-114 11.7 µM | DMS-273 14.5 µM | HOP-18 65.9 µM | KM-20L2 3.75 µM | M19-MEL 18.8 µM | XF498 17.7 µM

C1CN1c1nc(N2CC2)nc(N2CC2)n1
inactive: DLD-1 18.4 µM | DMS-114 2.99 µM | DMS-273 1.31 µM | HOP-18 17.5 µM | KM-20L2 15.1 µM | M19-MEL 12.3 µM | RXF 631 11.3 µM | XF498 4.89 µM

N#CC(C#N)=C(N)/C(C#N)=C/c1cc(O)c(O)c(Br)c1
inactive: DLD-1 55.6 µM | DMS-114 29.1 µM | DMS-273 59.2 µM | KM-20L2 31.7 µM | M19-MEL > 100 µM | SNB-78 75.7 µM | XF498 35.7 µM
